Series [1] deals with breast cancer cell line MX-1. Put plainly: MX-1 cell line proliferation assay. It is filed as cell-based, human. To be noted: Homo sapiens, MX1, 72 h; MX-1 cells, 3-day proliferation, Cell Titer Glo; read-out: Cellular proliferation: EC50. In general terms: In ATP-based viability assays light output follows the ATP content of the culture.
A short description of series [2]: Human liver microsome stability assay. In kind it is in vitro ADME. Conditions: both sexes, human, microsomes, pH 7.4.
Series [3] is described as follows: Rat liver microsome stability assay. In kind it is in vitro ADME. To be noted: rat liver microsomes (male Sprague-Dawley), 0.5 μM test compound, pH 7.4, 37° C.; for half-life at 0.5 μM: 0.25 mg/mL microsomal protein, read-out: Stability in rat liver microsomes (t1/2 in minutes). (In general: Liver microsomes are a subcellular fraction often used to study metabolism.)

Series [4] in a line: Mouse liver microsome stability assay. In kind it is in vitro ADME. Conditions: male, CD1, mouse, microsomes, pH 7.4.

With `CN(C)c1cccc(Oc2ccc(S(C)(=O)=O)cc2-c2cn(C)c(=O)c3[nH]ccc23)c1` [Example 180, 4-{2-[3-(dimethylamino)phenoxy]-5-(methylsulfonyl)phenyl}-6-methyl-1,6-dihydro-7H-pyrrolo[2,3-c]pyridin-7-one], in series [1], the EC50 stood at 115 nM. Besides, the figures for the half-life at 0.5 μM in series [2], in series [3] and in series [4] were 12 min, 7 min and 5 min, respectively.

Regarding `CC1CC1COc1ccc(S(C)(=O)=O)cc1-c1cn(C)c(=O)c2[nH]ccc12` (stereo not shown) [Example 223, 6-methyl-4-{2-[(2-methylcyclopropyl)methoxy]-5-(methylsulfonyl)phenyl}-1,6-dihydro-7H-pyrrolo[2,3-c]pyridin-7-one], the EC50 in series [1] amounted to 13.3 nM. The values for the half-life at 0.5 μM in series [2], in series [3] and in series [4] were 54 min, 24 min and 48 min, respectively.

In the case of `CCS(=O)(=O)c1ccc(N2CCN(C)CC2)c(-c2cn(C)c(=O)c3[nH]ccc23)c1` [Example 331, 4-[5-(ethylsulfonyl)-2-(4-methylpiperazin-1-yl)phenyl]-6-methyl-1,6-dihydro-7H-pyrrolo[2,3-c]pyridin-7-one], in series [1], the EC50 is 481 nM. Besides, the half-life at 0.5 μM in series [2], in series [3] and in series [4] was greater than 120 min in each case.

Regarding `CCOC(=O)c1cc2c(-c3cc(N)ccc3Oc3ccccc3)nn(C)c(=O)c2[nH]1` [Example 74, ethyl 4-(5-amino-2-phenoxyphenyl)-6-methyl-7-oxo-6,7-dihydro-1H-pyrrolo[2,3-d]pyridazine-2-carboxylate], the EC50 in series [1] came to 275 nM. Further, the half-life at 0.5 μM in series [2] turned out to be 17 min; in series [3], 3 min; in series [4], 5 min.

Regarding `CCNC(=O)Cc1ccc(OCc2ccccc2)c(-c2cn(C)c(=O)c3[nH]ccc23)c1` [Example 46, 2-[4-(benzyloxy)-3-(6-methyl-7-oxo-6,7-dihydro-1H-pyrrolo[2,3-c]pyridin-4-yl)phenyl]-N-ethylacetamide], the EC50 in series [1] is 588 nM. Also, the half-life at 0.5 μM was found to be 10 min in series [2], 4 min in series [3] and 13 min in series [4].

Consider `Cn1cc(-c2ccccc2CN2CCOCC2)c2cc[nH]c2c1=O` [Example 12, 6-methyl-4-[2-(morpholin-4-ylmethyl)phenyl]-1,6-dihydro-7H-pyrrolo[2,3-c]pyridin-7-one], for which the EC50 in series [1] is greater than 3000 nM. Besides, the half-life at 0.5 μM in series [2] amounted to 51 min; in series [3], 10 min; in series [4], 33 min.

Take `CCS(=O)(=O)Nc1ccc(Oc2ccc(F)cc2F)c(-c2cn(C)c(=O)c3[nH]ncc23)c1` [Example 320, N-[4-(2,4-difluorophenoxy)-3-(6-methyl-7-oxo-6,7-dihydro-1H-pyrazolo[3,4-c]pyridin-4-yl)phenyl]ethanesulfonamide]: the EC50 in series [1] stood at 18.7 nM. The half-life at 0.5 μM in series [2] was greater than 120 min; in series [3], 57 min; in series [4], 116 min.

`Cn1cc(-c2cc(C(=O)Nc3nccs3)ccc2Oc2ccccc2)c2cc[nH]c2c1=O` [Example 17, 3-(6-methyl-7-oxo-6,7-dihydro-1H-pyrrolo[2,3-c]pyridin-4-yl)-4-phenoxy-N-(1,3-thiazol-2-yl)benzamide]: in series [1], the EC50 worked out at 283 nM. Also, the figures for the half-life at 0.5 μM in series [2], in series [3] and in series [4] were 31 min, 18 min and 16 min, respectively.

As for `CNS(=O)(=O)c1cnc(Nc2ccccc2)c(-c2cn(C)c(=O)c3[nH]ccc23)c1` [Example 112, N-methyl-5-(6-methyl-7-oxo-6,7-dihydro-1H-pyrrolo[2,3-c]pyridin-4-yl)-6-(phenylamino)pyridine-3-sulfonamide], the EC50 in series [1] was determined as 240 nM. In addition, the half-life at 0.5 μM came to 49 min in series [2], 28 min in series [3] and 51 min in series [4].

`CCCS(=O)(=O)Nc1ccc(OC2CCOC2)c(-c2cn(C)c(=O)c3[nH]ccc23)c1` (stereo not shown) [Example 92, N-[3-(6-methyl-7-oxo-6,7-dihydro-1H-pyrrolo[2,3-c]pyridin-4-yl)-4-(tetrahydrofuran-3-yloxy)phenyl]propane-1-sulfonamide]: the EC50 in series [1] amounted to 84 nM. Also, the half-life at 0.5 μM in series [2] turned out to be 97 min; in series [3] it was 20 min; in series [4], 11 min.

As for `Cn1cc(-c2cc(S(C)(=O)=O)ccc2Oc2ccc(S(C)(=O)=O)cc2)c2cc[nH]c2c1=O` [Example 270, 6-methyl-4-{5-(methylsulfonyl)-2-[4-(methylsulfonyl)phenoxy]phenyl}-1,6-dihydro-7H-pyrrolo[2,3-c]pyridin-7-one], the EC50 in series [1] came to 421 nM. The half-life at 0.5 μM in series [2], in series [3] and in series [4] was greater than 120 min throughout.

Consider `Cn1cc(-c2cc(S(C)(=O)=O)ccc2Oc2cccc3cnccc23)c2cc[nH]c2c1=O` [Example 161, 4-[2-(isoquinolin-5-yloxy)-5-(methylsulfonyl)phenyl]-6-methyl-1,6-dihydro-7H-pyrrolo[2,3-c]pyridin-7-one], for which, in series [1], the EC50 is 104 nM. Also, the half-life at 0.5 μM is 5 min in series [2], 10 min in series [3] and 4 min in series [4].

In the case of `Cn1cc(-c2cc(NS(=O)(=O)CC(F)(F)F)ccc2OC2CCOCC2)c2cc[nH]c2c1=O` [Example 100, 2,2,2-trifluoro-N-[3-(6-methyl-7-oxo-6,7-dihydro-1H-pyrrolo[2,3-c]pyridin-4-yl)-4-(tetrahydro-2H-pyran-4-yloxy)phenyl]ethanesulfonamide], in series [1], the EC50 stood at 107 nM. Further, the half-life at 0.5 μM in series [2] turned out to be 77 min; in series [3] it was 71 min; in series [4], 60 min.

On to `CCCS(=O)(=O)Nc1ccc(OC2CCCOC2)c(-c2cn(C)c(=O)c3[nH]ccc23)c1` (stereo not shown) [Example 106, N-[3-(6-methyl-7-oxo-6,7-dihydro-1H-pyrrolo[2,3-c]pyridin-4-yl)-4-(tetrahydro-2H-pyran-3-yloxy)phenyl]propane-1-sulfonamide], for which the EC50 in series [1] was 46.8 nM. Further, the half-life at 0.5 μM in series [2] turned out to be 39 min; in series [3] it was 8 min; in series [4], 4 min.

`CCOC(=O)c1ccc(NC2CCCC2)c(-c2cn(C)c(=O)c3[nH]ccc23)c1` [Example 40, ethyl 4-(cyclopentylamino)-3-(6-methyl-7-oxo-6,7-dihydro-1H-pyrrolo[2,3-c]pyridin-4-yl)benzoate]: in series [1], the EC50 is 167 nM. Moreover, the results for the half-life at 0.5 μM in series [2] and in series [4] were 13.1 min and 6 min, respectively. In addition, the “Stability in rat liver microsomes (t1/2 in minutes)” value in series [3] ([…] microsomal protein) came to 1 min.

Consider `Cn1cc(-c2cc(NS(=O)(=O)CC(F)(F)F)ccc2OC2CCC(F)(F)CC2)c2cc[nH]c2c1=O` [Example 103, N-{4-[(4,4-difluorocyclohexyl)oxy]-3-(6-methyl-7-oxo-6,7-dihydro-1H-pyrrolo[2,3-c]pyridin-4-yl)phenyl}-2,2,2-trifluoroethanesulfonamide], for which the EC50 in series [1] stood at 33.8 nM. Further, the figures for the half-life at 0.5 μM in series [2], in series [3] and in series [4] were 47 min, 16 min and 37 min, respectively.

(Values after patent publication US9296741B2, “Bromodomain inhibitors” (priority 2012, dated 2016).)
